Values quoted from earlier work, collected in patent publication US5008256A, “Salts of ranitidine and complexes of bismuth with carboxylic acids, and pharmaceutical compositions thereof” (Glaxo Group Limited, priority 1988, dated 1991).

Columns and labels:
[1] = system: histamine H2 receptor; conditions: background; in words
[2] = system: Campylobacter pylori; conditions: background; in words

CNC(=C[N+](=O)[O-])NCCSCc1ccc(CN(C)C)o1 [Ranitidine, N-[2-[[[5-[(dimethylamino)-methyl]-2-furanyl]methyl]thio]ethyl]-N'-methyl-2-nitro-1,1-ethenediamine]
histamine H2-antagonist activity [1]: potent histamine H2 -antagonist

O=C([O-])CC(O)(CC(=O)[O-])C(=O)[O-].O=C([O-])CC(O)(CC(=O)[O-])C(=O)[O-].[Bi+3].[K+].[K+].[K+] [bismuth subcitrate, tripotassium dicitrato bismuthate]
susceptibility of Campylobacter pylori [2]: susceptible
